According to paper PMC10322960 (European Journal of Drug Metabolism and Pharmacokinetics, 2023):

Assay: Phase 1 clinical drug–drug interaction study, safety assessment
Type: in vivo, human
Conditions: Cohort 1, 12 subjects; mild in severity

CCC(C)n1ncn(-c2ccc(N3CCN(c4ccc(OCC5COC(Cn6cncn6)(c6ccc(Cl)cc6Cl)O5)cc4)CC3)cc2)c1=O (centres unmarked) [itraconazole, reference compound]
number of treatment-emergent AEs considered related to the drug: 5
subjects with treatment-emergent AEs considered related to the drug: 16.7%
